Measured values taken from ChEMBL document CHEMBL1862790, “Optimisation of fenarimol series for the treatment of Chagas disease”.
Several values for one entry are separate records, joined by “and”; a condition that tells them apart may be missing. Equal values may be shown once.

Legend:
Trypanosoma cruzi [1] = assay: microbe, parasite or virus in culture; format: functional, organism-based, Tulahuen LacZ, Clone C4
[2] = DNDI: Cytotoxicity against L-6 rat myoblasts from skeletal muscle cells; settings: L6 rat skeletal muscle myoblast cells
Trypanosoma cruzi [3] = assay: microbe, parasite or virus in culture; format: functional, Tulahuen LacZ, Clone C4
[4] = Trypanosoma cruzi, Tulahuen LacZ, Clone C4

SMILES	IC50 (Trypanosoma cruzi [1]; [4]) [nM]	IC50 ([2]; IC50) [nM]	IC90 (Trypanosoma cruzi [3]; [4]) [nM]	IC50 (Trypanosoma cruzi [1])	IC90 (Trypanosoma cruzi [3])	IC50 [2] [nM]
CC(C)Oc1ccc(C(O)(c2cccnc2)c2cccc(C(N)=O)c2)cc1F (stereo not given)	99	> 100000	270			
O=C(Cc1ccccc1)NC(c1ccc(C(F)(F)F)cc1)c1cnccn1 (stereo not given)	> 1000	> 100000	> 1000			
CCN(CC)C(=O)NC1CCN(C(c2cncnc2)c2ccc(Cl)cc2F)CC1 (stereo not given)	50	58100	250			
CC(C)CS(=O)(=O)NC(c1ccc(C(F)(F)F)cc1)c1cnccn1 (stereo not given)	> 1000	> 100000	> 1000			
O=S(=O)(C1CCCCC1)N1CCN(C(c2cncnc2)c2ccc(Cl)cc2F)CC1 (stereo not given)	18	61300	38			
CS(=O)(=O)N1CCC(NC(c2ccc(C(F)(F)F)cc2)c2cnccn2)CC1 (stereo not given)	970	> 100000	2760			
CCN(CC)C(=O)N1CCC(NC(c2ccc(Cl)cc2)c2cccnc2)CC1 (stereo not given)	36	> 100000	100			
O=C(c1ccccc1)N1CC(NC(c2ccc(C(F)(F)F)cc2)c2cccnc2)C1 (stereo not given)	189	83800	720			
O=C(NC1CCN(C(c2cccnc2)c2ccc(Cl)cc2F)CC1)c1ccccc1 (stereo not given)	8.25	56400	83.3			
CC(C)CS(=O)(=O)NC1CCN(C(c2cnccn2)c2ccc(F)cc2F)CC1 (stereo not given)	750	> 100000	3540			
OC(c1ccc(F)cc1)(c1ccc(Cl)cc1)c1cncnc1 (stereo not given)	641	> 100000				
CS(=O)(=O)N1CCN(C(c2cncnc2)c2ccc(Cl)cc2F)CC1 (stereo not given)	444	> 100000	724	390 nM	850 nM	
CC(C)Oc1ccc(C(c2cccnc2)N2CCC(NC(=O)OC(C)(C)C)CC2)cc1 (stereo not given)	25	56000	80			
O=C(OCc1ccccc1)N1CCN(C(c2ccc(Cl)cc2)c2cncnc2)CC1 (stereo not given)	150	52100	300			
CCN(CC)C(=O)NC1CCN(C(c2ccc(Cl)cc2)c2cncnc2)CC1 (stereo not given)	110	> 100000	860			
[O-][n+]1cncc(C(O)(c2ccc(Cl)cc2)c2ccccc2Cl)c1 (stereo not given)	14500	> 100000				
Cc1nc(C(=O)N2CCC(NC(c3ccc(C(F)(F)F)cc3)c3cccnc3)CC2)cs1 (stereo not given)	326	> 100000	808			
CN(C)C(=O)N1CCC(NC(c2ccc(C(F)(F)F)cc2)c2cnccn2)CC1 (stereo not given)	500	> 100000	920			
O=S(=O)(Cc1ccccc1)N1CCN(C(c2ccc(Cl)cc2)c2cncnc2)CC1 (stereo not given)	220	63000	620			
Cc1cc(C(=O)NC2CCN(C(c3ccc(C(F)(F)F)cc3)c3cccnc3)CC2)[nH]n1 (stereo not given)	48	73100	150			
CC(C)CS(=O)(=O)N1CCC(NC(c2ccc(C(F)(F)F)cc2)c2cnccn2)CC1 (stereo not given)	330	> 100000	880			

SMILES	IC50 (Trypanosoma cruzi [1]; [4]) [nM]	IC50 ([2]; IC50) [nM]	IC90 (Trypanosoma cruzi [3]; [4]) [nM]	IC50 (Trypanosoma cruzi [1])	IC90 (Trypanosoma cruzi [3])	IC50 [2] [nM]
CC(C)(C)OC(=O)N1CCC(CN(c2ccc(C(F)(F)F)cc2)c2cccnc2)CC1	28	51700	67			
O=S(=O)(Cc1ccccc1)N1CCC(NC(c2ccc(C(F)(F)F)cc2)c2cnccn2)CC1 (stereo not given)	210	> 100000	770			
CCS(=O)(=O)N1CCN(C(c2ccc(Cl)cc2)c2cncnc2)CC1 (stereo not given)	260	> 100000	850			
CCS(=O)(=O)N1CCN(C(c2ccc(Cl)cc2)c2cccnc2)CC1 (stereo not given)	47	> 100000	140			
CCN(CC)C(=O)c1cccc(C(O)(c2ccc(Cl)cc2)c2cccnc2)c1 (stereo not given)	150	> 100000	280			
CC(C)CS(=O)(=O)N1CCN(C(c2ccc(Cl)cc2)c2cncnc2)CC1 (stereo not given)	62	92700	200			
CC(C)CC(=O)N1CCN(C(c2ccc(Cl)cc2)c2cccnc2)CC1 (stereo not given)	55	> 100000	180			
CCN(CC)C(=O)NC1CCN(C(c2ccc(OC(C)C)cc2)c2cccnc2)CC1 (stereo not given)	87	> 100000	280			
N#Cc1ccc(C(c2cccnc2)N2CCC(NC(=O)Nc3ccccc3)CC2)cc1 (stereo not given)	29	> 100000	95			
CC(C)(C)OC(=O)NC1CCN(C(c2ccc(Cl)cc2)c2cccnc2)CC1 (stereo not given)	8.5	54000	46			
O=S(=O)(c1ccc(Cl)cc1)N1CCN(C(c2cncnc2)c2ccc(Cl)cc2F)CC1 (stereo not given)	60	> 100000	110			
CC(C)c1ccc(C(O)(c2ccc(C(F)(F)F)cc2)c2cccnc2)cc1 (stereo not given)	2		7			
OC(c1ccc(Cl)cc1)(c1cncnc1)c1ccccc1Cl (stereo not given) [FENARIMOL]	250		560			
OC(c1cncnc1)(c1ccccc1Cl)c1ccccc1Cl	1060	> 100000				
CS(=O)(=O)N1CCN(C(c2cccnc2)c2ccc(Cl)cc2F)CC1 (stereo not given)				85 nM and 45.3 nM	380 nM and 167 nM	
OC(c1ccccc1)(c1ccc(Cl)cc1)c1cncnc1 (stereo not given)	462	> 100000				
CON=C(c1ccc(Cl)cc1)C1(c2ccccc2C(=O)O)CC1	> 1000	> 100000				
CNC1=C(c2cccc(C(F)(F)F)c2)C(=O)C(c2ccccc2)O1 (stereo not given) [FLURTAMONE]	55500					82800
O=C(C1CC1)N1CCC(NC(c2ccc(C(F)(F)F)cc2)c2cnccn2)CC1 (stereo not given)				640 nM	> 1000 nM	
CS(=O)(=O)N1CCC(CNC(c2ccc(C(F)(F)F)cc2)c2cnccn2)CC1 (stereo not given)				360 nM	910 nM	
CC(C)C(=O)N1CCN(C(c2ccc(Cl)cc2)c2cncnc2)CC1 (stereo not given)				680 nM	> 1000 nM	

SMILES	IC50 (Trypanosoma cruzi [1]; [4]) [nM]	IC50 ([2]; IC50) [nM]	IC90 (Trypanosoma cruzi [3]; [4]) [nM]	IC50 (Trypanosoma cruzi [1])	IC90 (Trypanosoma cruzi [3])	IC50 [2] [nM]
OC(c1ccc(Cl)cc1)(c1cccnc1)c1ccc(Br)cc1F (stereo not given)	27		120			
CON=C(Cc1ccc(OC)cc1)c1ccc(OC)c(OC)c1OC	> 1000	92300				
CC1(C)CC(=O)C(C(=O)c2ccc(Cl)cc2Cl)C(=O)C1	58500	76500				
CON(C)C(=O)Nc1ccc(Br)cc1 [METOBROMURON]	71800					> 100000
OC(Cc1ccc(Cl)nc1)c1ccc(Cl)cc1 (stereo not given)	> 1000	> 100000				
CON=C(Cc1ccccc1)c1ccc(OC)cc1	> 1000	> 100000				
Clc1ccc(C(c2ccc(Cl)cc2)c2cccnc2)cc1	80		1600			
Oc1cc(Cl)ccc1Oc1ccc(Cl)cc1Cl [TRICLOSAN]	53000					82200
C#CCOC(=O)[C@@H](C)Oc1ccc(Oc2ncc(Cl)cc2F)cc1 [CLODINAFOP PROPARGYL]	67500	> 100000				
CC(Oc1ccc(Cl)cc1Cl)C(=O)O (stereo not drawn) [RAC-DICHLORPROP]	74000					> 100000
CC(C)Oc1ccccc1C(O)(c1ccc(Cl)cc1)c1cccnc1 (stereo not given)	446		820			
OC(c1ccc(Cl)cc1)(c1cccnc1)c1ccc(Cl)s1 (stereo not given)	77	50000				
O=[N+]([O-])c1ccc(O/N=C/c2cc(Br)c(O)c(Br)c2)c([N+](=O)[O-])c1	23900					83600
CC(Oc1ccc(Oc2nc3ccc(Cl)cc3o2)cc1)C(=O)O (stereo not given) [FENOXAPROP]	> 100000					> 100000
COC(c1ccc(Cl)cc1)(c1cccnc1)c1ccccc1Cl (stereo not given)	90		10000			
CON=C(Cc1ccccc1)c1ccc(F)cc1	> 1000					
CON=C(Cc1ccccc1C(=O)O)c1ccc(Cl)cc1	> 1000	> 100000				
N#Cc1cccc(OC2CCN(C(c3ccc(C(F)(F)F)cc3)c3cccnc3)CC2)c1 (stereo not given)	7.5			8.25 nM	12.5 nM and 29 nM	
O=C(C1CC1)N1CCC(NC(c2ccc(Cl)cc2)c2cccnc2)CC1 (stereo not given)				110 nM		
OC(c1ccc(Cl)cc1)(c1cccnc1)c1cccc(F)c1 (stereo not given)	100		330			
